Columns and labels:
Assay in all cases: KinaseProfiler kinase profiling
Type in all cases: biochemical
Settings in all cases: 10 μM, ATP near Km
[1] = target: T1, AKT1 (Homo sapiens, UniProt P31749)
T1 construct: purchased Millipore, Inc. (KinaseProfiler service)
Summary of the method: (§1)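 The compound was assayed at 10 μM in duplicate, using an ATP level near the Km determined for each individual kinase. Values were reported as percent of control and averaged across the two runs.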

[2] = target: T2, AURKA (Homo sapiens, UniProt O14965)
T2 construct: purchased Millipore, Inc. (KinaseProfiler service)
Summary of the method: as §1

[3] = target: T3, CAMK2d (Homo sapiens, UniProt Q13557)
T3 construct: purchased Millipore, Inc. (KinaseProfiler service)
Summary of the method: as §1

[4] = target: T4, CHK1 (Homo sapiens, UniProt O14757)
T4 construct: purchased Millipore, Inc. (KinaseProfiler service)
Summary of the method: as §1

[5] = target: T5, CHK2 (Homo sapiens, UniProt O96017)
T5 construct: purchased Millipore, Inc. (KinaseProfiler service)
Summary of the method: as §1

[6] = target: T6, CK1gamma1 (Homo sapiens, UniProt Q9HCP0)
T6 construct: purchased Millipore, Inc. (KinaseProfiler service)
Summary of the method: as §1

[7] = target: T7, CK2alpha2 (Homo sapiens, UniProt P19784)
T7 construct: purchased Millipore, Inc. (KinaseProfiler service)
Summary of the method: as §1

[8] = target: T8, DMPK (Homo sapiens, UniProt Q09013)
T8 construct: purchased Millipore, Inc. (KinaseProfiler service)
Summary of the method: as §1

[9] = target: T9, EGFR (Homo sapiens, UniProt P00533)
T9 construct: purchased Millipore, Inc. (KinaseProfiler service)
Summary of the method: as §1

[10] = target: T10, ERK1 (Homo sapiens, UniProt P27361)
T10 construct: purchased Millipore, Inc. (KinaseProfiler service)
Summary of the method: as §1

[11] = target: T11, EphB2 (Homo sapiens, UniProt P29323)
T11 construct: purchased Millipore, Inc. (KinaseProfiler service)
Summary of the method: as §1

[12] = target: T12, FAK (Homo sapiens, UniProt Q05397)
T12 construct: purchased Millipore, Inc. (KinaseProfiler service)
Summary of the method: as §1

[13] = target: T13, FGFR3 (Homo sapiens, UniProt P22607)
T13 construct: purchased Millipore, Inc. (KinaseProfiler service)
Summary of the method: as §1

[14] = target: T14, HIPK2 (Homo sapiens, UniProt Q9H2X6)
T14 construct: purchased Millipore, Inc. (KinaseProfiler service)
Summary of the method: as §1

[15] = target: T15, IGF-1R (Homo sapiens, UniProt P08069)
T15 construct: purchased Millipore, Inc. (KinaseProfiler service)
Summary of the method: as §1

[16] = target: T16, IKKbeta (Homo sapiens, UniProt O14920)
T16 construct: purchased Millipore, Inc. (KinaseProfiler service)
Summary of the method: as §1

[17] = target: T17, IR (Homo sapiens, UniProt P06213)
T17 construct: purchased Millipore, Inc. (KinaseProfiler service)
Summary of the method: as §1

[18] = target: T18, IRAK4 (Homo sapiens, UniProt Q9NWZ3)
T18 construct: purchased Millipore, Inc. (KinaseProfiler service)
Summary of the method: as §1

[19] = target: T19, MAP3K5 (Homo sapiens, UniProt Q99683)
T19 construct: purchased Millipore, Inc. (KinaseProfiler service)
Summary of the method: as §1

[20] = target: T20, MAPKAP-K2 (Homo sapiens, UniProt P49137)
T20 construct: purchased Millipore, Inc. (KinaseProfiler service)
Summary of the method: as §1

[21] = target: T21, MELK (Homo sapiens, UniProt Q14680)
T21 construct: purchased Millipore, Inc. (KinaseProfiler service)
Summary of the method: as §1

[22] = target: T22, MINK (Homo sapiens, UniProt Q8N4C8)
T22 construct: purchased Millipore, Inc. (KinaseProfiler service)
Summary of the method: as §1

[23] = target: T23, MKK7 (Homo sapiens, UniProt O14733)
T23 construct: purchased Millipore, Inc. (KinaseProfiler service)
Summary of the method: as §1

[24] = target: T24, MKNK2 (Homo sapiens, UniProt Q9HBH9)
T24 construct: purchased Millipore, Inc. (KinaseProfiler service)
Summary of the method: as §1

[25] = target: T25, MRCKbeta (Homo sapiens, UniProt Q9Y5S2)
T25 construct: purchased Millipore, Inc. (KinaseProfiler service)
Summary of the method: as §1

[26] = target: T26, MSSK1 (Homo sapiens, UniProt Q9UPE1)
T26 construct: purchased Millipore, Inc. (KinaseProfiler service)
Summary of the method: as §1

[27] = target: T27, MST1 (Homo sapiens, UniProt Q13043)
T27 construct: purchased Millipore, Inc. (KinaseProfiler service)
Summary of the method: as §1

[28] = target: T28, NEK2 (Homo sapiens, UniProt P51955)
T28 construct: purchased Millipore, Inc. (KinaseProfiler service)
Summary of the method: as §1

[29] = target: T29, PKAC-alpha (Homo sapiens, UniProt P17612)
T29 construct: purchased Millipore, Inc. (KinaseProfiler service)
Summary of the method: as §1

[30] = target: T30, PKCalpha (Homo sapiens, UniProt P17252)
T30 construct: purchased Millipore, Inc. (KinaseProfiler service)
Summary of the method: as §1

[31] = target: T31, PKCbetaI (Homo sapiens, UniProt P05771)
T31 construct: purchased Millipore, Inc. (KinaseProfiler service)
Summary of the method: as §1

[32] = target: T32, PKCepsilon (Homo sapiens, UniProt Q02156)
T32 construct: purchased Millipore, Inc. (KinaseProfiler service)
Summary of the method: as §1

[33] = target: T33, PKCeta (Homo sapiens, UniProt P24723)
T33 construct: purchased Millipore, Inc. (KinaseProfiler service)
Summary of the method: as §1

[34] = target: T34, PRK2 (Homo sapiens, UniProt Q16513)
T34 construct: purchased Millipore, Inc. (KinaseProfiler service)
Summary of the method: as §1

[35] = target: T35, PRKG1beta (Homo sapiens, UniProt Q13976)
T35 construct: purchased Millipore, Inc. (KinaseProfiler service)
Summary of the method: as §1

[36] = target: T36, Plk3 (Homo sapiens, UniProt Q9H4B4)
T36 construct: purchased Millipore, Inc. (KinaseProfiler service)
Summary of the method: as §1

[37] = target: T37, Ret (Homo sapiens, UniProt P07949)
T37 construct: purchased Millipore, Inc. (KinaseProfiler service)
Summary of the method: as §1

[38] = target: T38, SIK (Homo sapiens, UniProt P57059)
T38 construct: purchased Millipore, Inc. (KinaseProfiler service)
Summary of the method: as §1

[39] = target: T39, TAO3 (Homo sapiens, UniProt Q9H2K8)
T39 construct: purchased Millipore, Inc. (KinaseProfiler service)
Summary of the method: as §1

[40] = target: T40, TBK1 (Homo sapiens, UniProt Q9UHD2)
T40 construct: purchased Millipore, Inc. (KinaseProfiler service)
Summary of the method: as §1

[41] = target: T41, Yes (Homo sapiens, UniProt P07947)
T41 construct: purchased Millipore, Inc. (KinaseProfiler service)
Summary of the method: as §1

T18 sequence (Q9NWZ3 whole entry): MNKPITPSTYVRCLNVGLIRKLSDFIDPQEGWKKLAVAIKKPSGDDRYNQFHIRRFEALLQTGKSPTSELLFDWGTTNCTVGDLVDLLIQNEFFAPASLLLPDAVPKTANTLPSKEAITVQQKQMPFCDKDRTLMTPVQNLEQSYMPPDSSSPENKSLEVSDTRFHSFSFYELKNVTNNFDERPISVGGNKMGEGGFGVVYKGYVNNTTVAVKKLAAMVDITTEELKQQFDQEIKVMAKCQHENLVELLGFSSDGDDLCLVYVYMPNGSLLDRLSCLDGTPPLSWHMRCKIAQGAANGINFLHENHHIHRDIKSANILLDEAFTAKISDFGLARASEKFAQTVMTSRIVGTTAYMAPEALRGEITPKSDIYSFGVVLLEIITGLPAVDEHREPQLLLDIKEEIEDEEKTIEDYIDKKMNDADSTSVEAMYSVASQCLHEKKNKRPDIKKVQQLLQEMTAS
T12 sequence (Q05397 whole entry): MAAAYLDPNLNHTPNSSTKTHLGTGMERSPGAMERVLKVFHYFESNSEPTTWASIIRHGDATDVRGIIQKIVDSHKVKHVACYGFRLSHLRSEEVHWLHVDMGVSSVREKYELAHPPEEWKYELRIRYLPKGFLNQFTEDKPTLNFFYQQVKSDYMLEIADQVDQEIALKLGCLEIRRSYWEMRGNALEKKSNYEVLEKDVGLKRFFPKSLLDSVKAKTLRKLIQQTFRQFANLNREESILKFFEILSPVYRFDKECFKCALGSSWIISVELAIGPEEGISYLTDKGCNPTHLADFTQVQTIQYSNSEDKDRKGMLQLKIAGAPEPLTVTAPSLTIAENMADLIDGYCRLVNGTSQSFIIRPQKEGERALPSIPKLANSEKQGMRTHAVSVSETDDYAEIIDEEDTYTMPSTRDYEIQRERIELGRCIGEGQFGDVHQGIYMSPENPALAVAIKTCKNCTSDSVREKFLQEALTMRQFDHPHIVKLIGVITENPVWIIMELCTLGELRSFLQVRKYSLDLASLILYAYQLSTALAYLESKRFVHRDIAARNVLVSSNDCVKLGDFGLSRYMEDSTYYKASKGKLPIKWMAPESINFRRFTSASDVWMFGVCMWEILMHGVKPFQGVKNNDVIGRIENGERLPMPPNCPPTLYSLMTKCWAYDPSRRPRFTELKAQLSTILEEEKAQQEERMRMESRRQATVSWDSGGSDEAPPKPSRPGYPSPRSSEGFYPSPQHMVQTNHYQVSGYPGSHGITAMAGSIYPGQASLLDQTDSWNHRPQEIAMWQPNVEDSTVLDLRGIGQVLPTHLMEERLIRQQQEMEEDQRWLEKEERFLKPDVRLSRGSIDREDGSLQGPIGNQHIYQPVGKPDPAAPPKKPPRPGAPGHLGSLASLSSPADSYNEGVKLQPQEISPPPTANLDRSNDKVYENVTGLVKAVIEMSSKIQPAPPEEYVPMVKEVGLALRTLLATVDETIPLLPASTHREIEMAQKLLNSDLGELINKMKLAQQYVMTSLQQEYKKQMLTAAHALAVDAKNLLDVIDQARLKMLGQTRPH
T8 sequence (Q09013 whole entry): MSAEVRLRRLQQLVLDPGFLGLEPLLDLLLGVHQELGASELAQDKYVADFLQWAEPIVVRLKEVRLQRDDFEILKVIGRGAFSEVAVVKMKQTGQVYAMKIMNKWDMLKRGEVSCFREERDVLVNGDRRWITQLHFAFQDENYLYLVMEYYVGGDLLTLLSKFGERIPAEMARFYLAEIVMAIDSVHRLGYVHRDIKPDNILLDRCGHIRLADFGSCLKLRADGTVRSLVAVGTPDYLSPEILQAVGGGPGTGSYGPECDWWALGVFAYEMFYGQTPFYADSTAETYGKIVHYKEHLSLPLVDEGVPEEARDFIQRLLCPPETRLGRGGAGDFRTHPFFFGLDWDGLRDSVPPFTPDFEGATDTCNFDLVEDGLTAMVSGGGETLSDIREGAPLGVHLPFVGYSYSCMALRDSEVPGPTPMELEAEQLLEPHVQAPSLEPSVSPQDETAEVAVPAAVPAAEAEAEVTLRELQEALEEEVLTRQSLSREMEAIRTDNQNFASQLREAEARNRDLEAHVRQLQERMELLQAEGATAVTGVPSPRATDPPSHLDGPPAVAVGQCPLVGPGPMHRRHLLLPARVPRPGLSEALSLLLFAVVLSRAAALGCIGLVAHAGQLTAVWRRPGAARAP
T22 sequence (Q8N4C8 whole entry): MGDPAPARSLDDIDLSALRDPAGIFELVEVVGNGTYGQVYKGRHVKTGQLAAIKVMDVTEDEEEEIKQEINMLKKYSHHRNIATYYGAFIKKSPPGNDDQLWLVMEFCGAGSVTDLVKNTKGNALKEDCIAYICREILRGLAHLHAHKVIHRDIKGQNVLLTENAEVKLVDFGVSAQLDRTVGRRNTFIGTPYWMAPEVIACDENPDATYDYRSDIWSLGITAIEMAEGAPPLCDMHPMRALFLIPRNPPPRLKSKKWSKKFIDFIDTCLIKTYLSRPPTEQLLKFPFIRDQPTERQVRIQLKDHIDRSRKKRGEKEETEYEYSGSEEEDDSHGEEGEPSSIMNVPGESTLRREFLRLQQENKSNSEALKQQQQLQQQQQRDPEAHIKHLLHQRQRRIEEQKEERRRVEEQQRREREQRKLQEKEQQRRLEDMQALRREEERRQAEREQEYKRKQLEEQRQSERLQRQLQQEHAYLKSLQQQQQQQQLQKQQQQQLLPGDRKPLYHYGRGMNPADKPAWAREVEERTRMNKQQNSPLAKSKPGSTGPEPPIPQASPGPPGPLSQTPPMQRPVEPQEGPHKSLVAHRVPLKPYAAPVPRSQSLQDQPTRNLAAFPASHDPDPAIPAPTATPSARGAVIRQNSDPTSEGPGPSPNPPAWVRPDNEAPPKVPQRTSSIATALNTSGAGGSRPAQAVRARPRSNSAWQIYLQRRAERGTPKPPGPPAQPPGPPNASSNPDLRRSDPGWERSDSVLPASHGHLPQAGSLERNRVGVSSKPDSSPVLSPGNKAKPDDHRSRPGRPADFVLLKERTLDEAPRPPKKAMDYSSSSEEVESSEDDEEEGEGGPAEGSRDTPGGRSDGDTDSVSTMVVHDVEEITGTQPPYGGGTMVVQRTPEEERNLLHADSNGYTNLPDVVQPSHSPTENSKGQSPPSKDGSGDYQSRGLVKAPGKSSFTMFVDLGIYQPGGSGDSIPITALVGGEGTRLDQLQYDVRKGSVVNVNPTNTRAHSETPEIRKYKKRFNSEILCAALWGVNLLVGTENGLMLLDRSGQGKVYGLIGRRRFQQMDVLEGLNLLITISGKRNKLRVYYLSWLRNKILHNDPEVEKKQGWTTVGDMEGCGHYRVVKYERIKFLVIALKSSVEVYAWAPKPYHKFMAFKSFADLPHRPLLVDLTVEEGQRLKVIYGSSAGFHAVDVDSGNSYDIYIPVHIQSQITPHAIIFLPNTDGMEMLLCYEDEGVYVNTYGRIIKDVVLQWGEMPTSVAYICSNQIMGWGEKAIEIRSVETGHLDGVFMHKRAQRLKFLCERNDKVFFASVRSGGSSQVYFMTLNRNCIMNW
T17 sequence (P06213 28-1382): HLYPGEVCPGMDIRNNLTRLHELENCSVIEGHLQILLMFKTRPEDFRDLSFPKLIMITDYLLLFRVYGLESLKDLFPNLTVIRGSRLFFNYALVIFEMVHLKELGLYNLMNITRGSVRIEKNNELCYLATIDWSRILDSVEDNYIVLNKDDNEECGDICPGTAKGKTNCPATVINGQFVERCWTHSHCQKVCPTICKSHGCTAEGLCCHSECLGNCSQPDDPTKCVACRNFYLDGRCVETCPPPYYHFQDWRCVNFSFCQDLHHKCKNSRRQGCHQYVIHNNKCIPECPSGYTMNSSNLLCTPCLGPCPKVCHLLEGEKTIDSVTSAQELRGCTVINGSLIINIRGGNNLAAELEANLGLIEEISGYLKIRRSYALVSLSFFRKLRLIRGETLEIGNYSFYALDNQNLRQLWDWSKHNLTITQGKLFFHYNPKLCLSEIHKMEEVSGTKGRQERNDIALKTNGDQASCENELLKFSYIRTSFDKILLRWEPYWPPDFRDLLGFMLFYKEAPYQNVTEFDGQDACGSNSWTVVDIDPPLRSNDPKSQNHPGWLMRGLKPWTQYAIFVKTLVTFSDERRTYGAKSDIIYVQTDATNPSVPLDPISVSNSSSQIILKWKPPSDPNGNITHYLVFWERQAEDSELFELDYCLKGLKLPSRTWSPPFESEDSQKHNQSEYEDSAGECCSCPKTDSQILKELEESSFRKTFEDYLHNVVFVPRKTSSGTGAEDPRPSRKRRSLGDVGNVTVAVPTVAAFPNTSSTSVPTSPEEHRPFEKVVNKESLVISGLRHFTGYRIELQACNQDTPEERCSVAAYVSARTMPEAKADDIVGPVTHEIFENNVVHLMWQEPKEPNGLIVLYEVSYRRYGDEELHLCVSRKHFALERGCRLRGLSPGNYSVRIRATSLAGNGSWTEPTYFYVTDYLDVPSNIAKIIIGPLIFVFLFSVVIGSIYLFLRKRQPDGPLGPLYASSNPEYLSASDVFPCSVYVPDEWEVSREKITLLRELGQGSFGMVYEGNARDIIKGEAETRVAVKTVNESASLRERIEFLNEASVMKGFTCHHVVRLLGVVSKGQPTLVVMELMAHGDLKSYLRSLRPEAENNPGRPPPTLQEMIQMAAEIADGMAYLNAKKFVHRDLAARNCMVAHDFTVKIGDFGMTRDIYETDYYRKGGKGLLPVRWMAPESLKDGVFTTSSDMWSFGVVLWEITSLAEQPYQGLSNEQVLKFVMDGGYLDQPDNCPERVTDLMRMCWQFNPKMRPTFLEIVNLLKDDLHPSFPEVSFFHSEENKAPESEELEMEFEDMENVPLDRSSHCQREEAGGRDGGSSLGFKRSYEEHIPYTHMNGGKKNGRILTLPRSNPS

Q: What does the source list for COCCN1C[C@@H](NC(=O)Nc2c(C)c(-c3cnc(C)nc3)nn2-c2ccccc2)[C@H](c2cccc(F)c2)C1 [Compound 1, 1-((3S,4R)-4-(3-fluorophenyl)-1-(2-methoxyethyl)pyrrolidin-3-yl)-3-(4-methyl-3-(2-methylpyrimidin-5-yl)-1-phenyl-1H-pyrazol-5-yl)urea]?
A: Avg POC [1]: 104 POC; Avg POC [2]: 115 POC; Avg POC [3]: 97.5 POC; Avg POC [4]: 109 POC; Avg POC [5]: 102.5 POC; Avg POC [6]: 78.5 POC; Avg POC [7]: 106 POC; Avg POC [8]: 98.5 POC; Avg POC [9]: 95.5 POC; Avg POC [10]: 94.5 POC; Avg POC [11]: 98 POC; Avg POC [12]: 100.5 POC; Avg POC [13]: 108 POC; Avg POC [14]: 101.5 POC; Avg POC [15]: 80.5 POC; Avg POC [16]: 104.5 POC; Avg POC [17]: 84.5 POC; Avg POC [18]: 98 POC; Avg POC [19]: 101 POC; Avg POC [20]: 115 POC; Avg POC [21]: 105.5 POC; Avg POC [22]: 105 POC; Avg POC [23]: 125 POC; Avg POC [24]: 111 POC; Avg POC [25]: 106.5 POC; Avg POC [26]: 127.5 POC; Avg POC [27]: 107.5 POC; Avg POC [28]: 95 POC; Avg POC [29]: 129.5 POC; Avg POC [30]: 98.5 POC; Avg POC [31]: 102.5 POC; Avg POC [32]: 101.5 POC; Avg POC [33]: 100 POC; Avg POC [34]: 116 POC; Avg POC [35]: 95.5 POC; Avg POC [36]: 100.5 POC; Avg POC [37]: 111.5 POC; Avg POC [38]: 108 POC; Avg POC [39]: 103 POC; Avg POC [40]: 114.5 POC; Avg POC [41]: 98.5 POC
